In paper PMC10447463, “Data-mining unveils structure–property–activity correlation of viral infectivity enhancing self-assembling peptides” (Nature Communications, 2023):
Like-named read-outs stand apart in the source and are kept apart here.

Legend:
[1] = assay type: physicochemical; set-up: key to Fibril / Fibril Formation / TEM 2cat / Fibril: 1 = fibrils present; 0 non-fibrillar structures; conditions: for Fibril / Fibril Formation: 1 mg/mL, uranyl acetate stain, qualitative
[2] = Turbidity, derived count rate of scattered light; assay type: physicochemical; conditions: for Count Rate / kcps: derived count rate of scattered light at 633 nm, 173°, from zeta-potential measurement, 0.1 mg/mL in 1 mM KCl after 1 d at 1 mg/mL in PBS, turbidity / microscopic aggregation, mean of triplicate
Experimental: 4 µL of 1 mg/mL peptide fibrils solution is added to a 20 µL, 50 µM ThT–solution in PBS. The mixture is incubated for 15 min at RT to allow binding of ThT dye with β–sheet rich structures. For reference PBS (4 µL) was added instead of peptide fibril solution. The samples were placed in black UV Star® 384 microliter well–plates (Greiner bio–one). Fluorescence spectra were recorded on an Infinite® M1000 PRO microplate reader (Tecan) at λem = 488 nm upon excitation at λex = 440 nm with 10 nm bandwidths and multiple reads per well (3×3). Measurements were repeated in triplicates and averaged with standard deviation. […] Zeta-Potential. For the determination of the surface charge of aggregated peptides zeta-potential measurements were conducted with a Zetasizer Nano ZS, Malvern Instruments. Unless stated otherwise the peptides were dissolved from DMSO (10 mg/mL) in PBS (pH 7.4) to concentration of 1 mg/mL and incubated for 1d at RT. Just before the measurement the 60 µL of the peptides were further diluted in 600 µL KCl (aq, 1 mM) in a 1 mL disposable folded capillary cells (DTS–1060, Zetasizer Nano series, Malvern). The zeta potential of the peptides was derived from the electrophoretic mobility based on the Smoluchowski formula. All measurements were averaged over two individually performed experiments and conducted in triplicates for each sample. Aggregate analysis. […] Furthermore, fluorescence microscopy was conducted by staining 1 µL preformed fibrils (1 mg/mL) with 9 µL ThT (50 µM). Brightfield microscopy was performed simultaneously to evaluate aggregation also for non ThT-active fibrils. The measurements were performed on a Leica DMi8 microscope with 10x air objective and equipped with a Leica MC170 HD camera with a filter setting λem = 527/30 nm upon excitation at λex = 480/40 nm) and processed with the Leica LASX software. To quantify size and number of microscopic aggregation of particles > 10 µm^2 at least 3 independently measured images were analyzed via the 3D object counter analysis tool of ImageJ, v 1.53f51. Sum–frequency generation. The SFG experiments were carried out with a femtosecond Ti: Sapphire amplified laser system (Spitfire Ace, Spectra–Physics, 800 nm, 40 fs, 1 kHz) with 5 W output power. We used 2 W to pump an optical parametric amplifier (TOPAS, light conversion) with a non–collinear difference frequency generation stage to generate broadband IR pulses. Another 1 W of the laser output passed through an etalon to generate narrowband visible pulses (10 cm^-1). The incident angles of the visible and IR beams were 36° and 41° with respect to the surface normal, respectively. The visible (13 µJ) and IR (5 µJ) pulses were overlapped spatially and temporally at the sample position. Subsequently, the generated SFG pulse was guided into a spectrograph (Acton SP 300i, Princeton Instruments), and detected with an EMCCD (Newton, Andor Technology). To avoid IR absorption of water vapor, we purged N2 for the measurement. All spectra were collected in the ssp (denoting s-, s- and p-polarized SFG, visible and IR, respectively) polarization combination. The spectra were normalized to the non–resonant signal taken from z–cut quartz after subtracting a background spectrum. […]
ways to determine turbidity of samples, this can be via transmittance and via scattering. Transmittance […]
as it is an easy and fast method.10,11 However, transmittance contributes not only from µm-sized aggregates but also nm-sized aggregates such as distinct fibrils, which makes hard to distinguish between fibril formation and micrometer sized aggregation. Although dynamic light scattering is a frequently applied method for determination of particle size, it cannot be conducted in solutions with anisotropic aggregates in micrometer size range, since the Stokes-Einstein relation is only applicable for homogeneous […] spherical particles.12 Further models describing scattering intensity and […]

[3] = tested on: HIV-1 infection of TZM-bl cells; assay: HIV-1 infectivity enhancement assay, β-galactosidase luminescence; assay type: cell-based; conditions: for Rel-EFC / Log10 Infection Rel EFC: 1.3 µM peptide; for Rel-EFC: infection relative to EF-C (QCKIKQIINMWQ = 1); for Log10 Infection Rel EFC: log10 of infection relative to EF-C; for Log Infectivity: Log10 infection relative to EF-C, TZM-bl cells, asymmetric std dev errors; for Log10 Infection Rel EF-C: HIV-1 infection of TZM-bl cells; for Log10 of Rel to EFC (Feb2021): Log10 of infection relative to EF-C, all peptides of FigS16
[4] = Fig S10 panel D, fibril category by TEM
[5] = TEM, 1 = fibrils present, 0 = non-fibrillar
[6] = TEM, 1 = fibrils present, 0 = non-fibrillar structures
[7] = category: fibrils present or non-fibrillar
[8] = Log10 of derived count rate of scattered light (turbidity)
[9] = log10 of derived count rate of scattered light (turbidity)
[10] = turbidity, Log10 of derived count rate of scattered light, Figure 3A source data
[11] = Fig. S7 panel A (plotted against β-sheet content)
[12] = Fig. S7 panel B (plotted against CR), rounded to two decimals
[13] = Log10 of infection rate relative to EF-C, Figure 3A source data
[14] = infection rate relative to EF-C, log10, data of Figure 2D
[15] = infection rate relative to EF-C, log10, source data of Figure 2C
[16] = FigS12 panel A, fibril category by TEM

Substance	TEM 2cat [1, 4]	Fibril ([1]; Fig S10 panel E)	Fibril / Fibril Formation ([1]; TEM)	Fibril [1, 5]	Fibril [1, 6]	TEM 2cat [1, 7]	Log10 Count Rate [2, 8]	Count Rate / kcps [2]	Log10 Count Rate [2, 9]	Log10 Count Rate [2, 10]	Rel-EFC [3]	Log10 Infection Rel EFC [3]	Log Infectivity [3, 11]	Log Infectivity [3, 12]	Log10 Infection Rel EF-C [3, 13]	Log10 Infection Rel EF-C [3, 14]	Log10 Infection Rel EF-C [3, 15]	Log10 of Rel to EFC (Feb2021) [3]	TEM 2cat [1, 16]	Fibril ([1]; FigS12 panel B, TEM)	other results
RGDSGGGGGGKIKIQIC	1	1	1	1	1	1	4.018	10416 kcps	4.018	4.018	0,87	-0,06	-0.0628	-0.06	-0.06	-0.0628	-0.0628	-0.06	–	–	Log10 Count Rate ([2]; logarithm of count rate in kcps): 4.018
KLKLQLL	1	–	1	1	1	–	1.861	73 kcps	1.861	1.861	0,01	-2,16	-2.156	–	-2.16	-2.156	-2.156	–	1	1	–
KIKIKIQI	1	1	1	1	1	–	3	999 kcps	3	3	0,1	-1,01	-1.014	-1.01	-1.01	-1.014	-1.014	–	1	1	–
KFKFKFQF	1	1	1	1	1	1	3.015	1036 kcps	3.015	3.015	0,8	-0,1	-0.09726	-0.1	-0.1	-0.09726	-0.09726	-0.1	–	–	–
CKIKQIIRGD	–	–	0	0	0	–	3.544	3495 kcps	3.544	3.544	0,05	-1,31	–	–	-1.31	-1.311	-1.311	–	–	0	–
